Reference: the supplement of paper PMC6965134
± gives the standard deviation of the averaged measurements. Values belong to the molecule of their own block, whether it stands above or below them.

Assay: TIMS collisional cross section (CCS, N2) of the lipid ion; higher = larger ion cross section
Settings: ionization mode: negative, one isomer drawn
Description: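 Lipid extracts of human plasma (NIST SRM 1950), mouse liver or HeLa cells were separated by nanoflow C18 LC (30 min gradient) and analysed by TIMS-PASEF on a timsTOF Pro. Ion mobility was calibrated with the Agilent tuning mix (negative mode ions) and converted to collisional cross sections (Mason–Schamp, N2).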
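Also: lipids from MTBE extraction, five replicate injections per sample, 100 ms TIMS ramp spanning 0.6–1.95 Vs/cm², lipid identity assigned from PASEF MS/MS spectra.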

TIMS collisional cross section (sample type: Human plasma, ion (formula + adduct): [C41H72NO8P-H] 1-): 269.4 Å²
TIMS collisional cross section (sample type: Mouse Liver, ion (formula + adduct): [C41H72NO8P-H] 1-): 269.4 Å²
SMILES: CC/C=C\C/C=C\C/C=C\C/C=C\C/C=C\CCCC(=O)OC[C@H](COP(=O)(O)OCCN)OC(=O)CCCCCCCCCCCCCCC [PE 20:5_16:0]

TIMS collisional cross section (sample type: Human plasma, ion (formula + adduct): [C39H70NO7P+AcO] 1-): 275.7 Å²
SMILES: CC/C=C\C/C=C\C/C=C\C/C=C\CCCCC(=O)O[C@H](CO/C=C\CCCCCCCCCCCCCC)COP(=O)(O)OCCN [PE P- 16:0@_18:4]

TIMS collisional cross section (sample type: Mouse Liver, ion (formula + adduct): [C41H70NO8P-H] 1-): 267.1 Å²
SMILES: CC/C=C\C/C=C\C/C=C\C/C=C\C/C=C\CCCC(=O)O[C@H](COC(=O)CCCCCCC/C=C\CCCCCC)COP(=O)(O)OCCN [PE 16:1_20:5]

TIMS collisional cross section (sample type: Mouse Liver, ion (formula + adduct): [C28H44NO9P-H] 1-): 230.2 Å²
SMILES: CC/C=C\C/C=C\C/C=C\C/C=C\C/C=C\C/C=C\CCC(=O)OC[C@@H](O)COP(=O)(O)OC[C@H](N)C(=O)O [LPS 22:6]

TIMS collisional cross section (sample type: Mouse Liver, ion (formula + adduct): [C46H82NO8P+HCOO] 1-): 297.7 Å²
SMILES: CCCCC/C=C\C/C=C\C/C=C\C/C=C\CCCCCC(=O)O[C@H](COC(=O)CCCCCCC/C=C\CCCCCC)COP(=O)([O-])OCC[N+](C)(C)C [PC 16:1@_22:4]

TIMS collisional cross section (sample type: Human plasma, ion (formula + adduct): [C19H39O7P-H] 1-): 201.2 Å²
SMILES: CCCCCCCCCCCCCCCC(=O)OC[C@@H](O)COP(=O)(O)O [LPA 16:0_0:0]

TIMS collisional cross section (sample type: Mouse Liver, ion (formula + adduct): [C50H86NO8P+HCOO] 1-): 306.7 Å²
SMILES: CC/C=C\C/C=C\C/C=C\C/C=C\C/C=C\C/C=C\CCC(=O)O[C@H](COC(=O)CCCCCCCCC/C=C\CCCCCCCC)COP(=O)([O-])OCC[N+](C)(C)C [PC 20:1_22:6@]

TIMS collisional cross section (sample type: Human plasma, ion (formula + adduct): [C41H78NO7P-CH3] 1-): 269 Å²
SMILES: CCCCC/C=C\C/C=C\CCCCCCCC(=O)O[C@H](CO/C=C\CCCCCCCCCCCCCCCC)COP(=O)(O)OCCN [PE P- 18:0@_18:2]

TIMS collisional cross section (sample type: Mouse Liver, ion (formula + adduct): [C46H86NO8P+HCOO] 1-): 300.6 Å²
SMILES: CCCCC/C=C\C/C=C\CCCC/C=C\CCCC(=O)O[C@H](COC(=O)CCCCCCCCCCCCCCCCC)COP(=O)([O-])OCC[N+](C)(C)C [PC 18:0_20:3@]

TIMS collisional cross section (sample type: Human plasma, ion (formula + adduct): [C48H84NO8P-CH3] 1-): 303.8 Å²
SMILES: CCCCC/C=C\C/C=C\C/C=C\C/C=C\CCCCCC(=O)O[C@H](COC(=O)CCCCCCC/C=C\C/C=C\CCCCC)COP(=O)([O-])OCC[N+](C)(C)C [PC 18:2_22:4@]

TIMS collisional cross section (sample type: Human plasma, ion (formula + adduct): [C43H82NO7P-H] 1-): 278.6 Å²
SMILES: CCCCC/C=C\C/C=C\CCCCCCCC(=O)O[C@H](CO/C=C\CCCCCCCCCCCCCCCCCC)COP(=O)(O)OCCN [PE P- 20:0@_18:2]

TIMS collisional cross section (sample type: Mouse Liver, ion (formula + adduct): [C46H74NO10P-H] 1-): 287.4 Å²
SMILES: CCCCC/C=C\C/C=C\C/C=C\C/C=C\CCCC(=O)OC[C@H](COP(=O)(O)OC[C@H](N)C(=O)O)OC(=O)CCC/C=C\C/C=C\C/C=C\C/C=C\CCCCC [PS 20:4_20:4]

TIMS collisional cross section (sample type: Human plasma, ion (formula + adduct): [C39H78NO8P+HCOO] 1-): 284.9 Å²
TIMS collisional cross section (sample type: Human plasma, ion (formula + adduct): [C39H78NO8P+OAcO] 1-): 290.8 Å²
SMILES: CCCCCCCCCCCCCCCC(=O)O[C@H](COC(=O)CCCCCCCCCCCCCC)COP(=O)([O-])OCC[N+](C)(C)C [PC 15:0_16:0@]

TIMS collisional cross section (sample type: Mouse Liver, ion (formula + adduct): [C41H80NO8P-H] 1-): 275.2 Å²
SMILES: CCCCCCCC/C=C\CCCCCCCCCC(=O)O[C@H](COC(=O)CCCCCCCCCCCCCCC)COP(=O)(O)OCCN [PE 16:0_20:1]

TIMS collisional cross section (sample type: Mouse Liver, ion (formula + adduct): [C40H74NO8P+HCOO] 1-): 284 Å²
SMILES: CC/C=C\C/C=C\C/C=C\CCCCCCCC(=O)O[C@H](COC(=O)CCCCCCCCCCCCC)COP(=O)([O-])OCC[N+](C)(C)C [PC 14:0_18:3]

TIMS collisional cross section (sample type: Human plasma, ion (formula + adduct): [C29H56NO8P+AcO] 1-): 252.1 Å²
SMILES: C=CC(=O)O[C@H](COC(=O)CCCCCCCCCCCCCCCCC)COP(=O)([O-])OCC[N+](C)(C)C [PC 18:0_3:1]

TIMS collisional cross section (sample type: Mouse Liver, ion (formula + adduct): [C25H50NO7P-H] 1-): 222.6 Å²
SMILES: CCCCCCCC/C=C\CCCCCCCCCC(=O)OC[C@@H](O)COP(=O)(O)OCCN [LPE 20:1_0:0]

TIMS collisional cross section (sample type: Mouse Liver, ion (formula + adduct): [C40H82NO7P-CH3] 1-): 267.9 Å²
SMILES: CCCCCCCCCCCCCCCCCCOC[C@H](COP(=O)(O)OCCN)OC(=O)CCCCCCCCCCCCCCCC [PE O- 18:0_17:0]

TIMS collisional cross section (sample type: Human plasma, ion (formula + adduct): [C40H78NO8P+HCOO] 1-): 286.6 Å²
SMILES: CCCCCC/C=C\CCCCCCCC(=O)O[C@H](COC(=O)CCCCCCCCCCCCCCC)COP(=O)([O-])OCC[N+](C)(C)C [PC 16:0_16:1]

TIMS collisional cross section (sample type: Human plasma, ion (formula + adduct): [C37H72NO8P-H] 1-): 261.6 Å²
TIMS collisional cross section (sample type: Mouse Liver, ion (formula + adduct): [C37H72NO8P-H] 1-): 261.6 Å²
SMILES: CCCCCC/C=C\CCCCCCCC(=O)OC[C@H](COP(=O)(O)OCCN)OC(=O)CCCCCCCCCCCCCCC [PE 16:1_16:0]

TIMS collisional cross section (sample type: Human plasma, ion (formula + adduct): [C25H47O12P-H] 1-): 230.2 Å²
SMILES: CCCCCC/C=C\CCCCCCCC(=O)OC[C@@H](O)COP(=O)(O)OC1[C@H](O)[C@H](O)C(O)[C@H](O)[C@H]1O (some centres not stated) [LPI 16:1_0:0]

TIMS collisional cross section (sample type: Mouse Liver, ion (formula + adduct): [C44H74NO8P-H] 1-): 275.5 Å²
SMILES: CC/C=C\C/C=C\C/C=C\C/C=C\C/C=C\C/C=C\CCC(=O)O[C@H](COC(=O)CCCCCCC/C=C\CCCCCCC)COP(=O)(O)OCCN [PE 17:1_22:6]

TIMS collisional cross section (sample type: Human plasma, ion (formula + adduct): [C46H84NO7P+HCOO] 1-): 297.5 ± 0.42 Å²
TIMS collisional cross section (sample type: Human plasma, ion (formula + adduct): [C46H84NO7P-CH3] 1-): 282.5 Å²
TIMS collisional cross section (sample type: Mouse Liver, ion (formula + adduct): [C46H84NO7P+HCOO] 1-): 296.1 Å²
TIMS collisional cross section (sample type: Mouse Liver, ion (formula + adduct): [C46H84NO7P-CH3] 1-): 282.5 Å²
SMILES: CCCCC/C=C\C/C=C\C/C=C\C/C=C\CCCC(=O)O[C@H](COCCCCCCCC/C=C\CCCCCCCC)COP(=O)([O-])OCC[N+](C)(C)C [PC O- 18:1@_20:4]

TIMS collisional cross section (sample type: Human plasma, ion (formula + adduct): [C45H81O13P-H] 1-): 292.5 Å²
TIMS collisional cross section (sample type: Mouse Liver, ion (formula + adduct): [C45H81O13P-H] 1-): 291.9 Å²
SMILES: CCCCC/C=C\C/C=C\CCCCCCCC(=O)OC[C@H](COP(=O)(O)OC1[C@H](O)[C@H](O)C(O)[C@H](O)[C@H]1O)OC(=O)CCCCCCC/C=C\CCCCCCCC (some centres not stated) [PI 18:2_18:1]

TIMS collisional cross section (sample type: Human plasma, ion (formula + adduct): [C48H80NO8P+HCOO] 1-): 298.8 Å²
TIMS collisional cross section (sample type: Mouse Liver, ion (formula + adduct): [C48H80NO8P+HCOO] 1-): 298.8 Å²
SMILES: CC/C=C\C/C=C\C/C=C\C/C=C\C/C=C\C/C=C\CCC(=O)O[C@H](COC(=O)CCCCCCC/C=C\C/C=C\CCCCC)COP(=O)([O-])OCC[N+](C)(C)C [PC 18:2_22:6]

TIMS collisional cross section (sample type: Mouse Liver, ion (formula + adduct): [C38H76NO8P+HCOO] 1-): 283.8 Å²
SMILES: CCCCCCCCCCCCCCCC(=O)O[C@H](COC(=O)CCCCCCCCCCCCC)COP(=O)([O-])OCC[N+](C)(C)C [PC 14:0_16:0@]

TIMS collisional cross section (sample type: Mouse Liver, ion (formula + adduct): [C39H76NO8P+AcO] 1-): 285.4 Å²
SMILES: CCCCCC/C=C\CCCCCCCC(=O)O[C@H](COC(=O)CCCCCCCCCCCCCC)COP(=O)([O-])OCC[N+](C)(C)C [PC 15:0@_16:1]

TIMS collisional cross section (sample type: Human plasma, ion (formula + adduct): [C48H84NO8P+HCOO] 1-): 302.8 Å²
TIMS collisional cross section (sample type: Mouse Liver, ion (formula + adduct): [C48H84NO8P+HCOO] 1-): 302.2 Å²
SMILES: CC/C=C\C/C=C\C/C=C\C/C=C\C/C=C\CCCCCC(=O)O[C@H](COC(=O)CCCCCCCCC/C=C\CCCCCC)COP(=O)([O-])OCC[N+](C)(C)C [PC 18:1_22:5]

TIMS collisional cross section (sample type: Human plasma, ion (formula + adduct): [C36H70NO8P+HCOO] 1-): 275.3 Å²
SMILES: CCCCCC/C=C\CCCCCCCC(=O)O[C@H](COC(=O)CCCCCCCCCCC)COP(=O)([O-])OCC[N+](C)(C)C [PC 12:0@_16:1]

TIMS collisional cross section (sample type: Human plasma, ion (formula + adduct): [C38H76NO8P+HCOO] 1-): 282.7 Å²
SMILES: CCCCCCCCCCCCCCCC(=O)O[C@H](COC(=O)CCCCCCCCCCCCC)COP(=O)([O-])OCC[N+](C)(C)C [PC 14:0_16:0]

TIMS collisional cross section (sample type: Mouse Liver, ion (formula + adduct): [C44H80NO8P+HCOO] 1-): 292.7 Å²
SMILES: CC/C=C\C/C=C\C/C=C\CCCCCCCC(=O)O[C@H](COC(=O)CCCCCCC/C=C\CCCCCCCC)COP(=O)([O-])OCC[N+](C)(C)C [PC 18:1@_18:3]

TIMS collisional cross section (sample type: Human plasma, ion (formula + adduct): [C27H52NO8P+AcO] 1-): 245.3 Å²
TIMS collisional cross section (sample type: Mouse Liver, ion (formula + adduct): [C27H52NO8P+OAcO] 1-): 252.2 Å²
SMILES: C=CC(=O)O[C@H](COC(=O)CCCCCCCCCCCCCCC)COP(=O)([O-])OCC[N+](C)(C)C [PC 16:0_3:1]
